{
  "source": "paper PMC8746798",
  "about": "“Evaluation of 2-Thioxoimadazolidin-4-one Derivatives as Potent Anti-Cancer Agents through Apoptosis Induction and Antioxidant Activation: In Vitro and In Vivo Approaches” (Molecules, 2021)",
  "system": "HepG2 cells",
  "assay": "DNA content flow cytometry cell cycle analysis",
  "assay_type": "cell-based, human",
  "settings": "HepG2, IC50 = 0.017 μM, 48 h; control 12.26%",
  "excerpt": "Apoptotic cells were quantified using double staining with annexin V and PI on flow cytometry. […] The detailed methodology of flow cytometric analysis (annexin V/PI differential apoptosis/necrosis, DNA content–flow cytometry aided cell cycle) is provided in the Supplementary Materials.\nSupplementary materials for detailed methodology\nEvaluation of 2-thioxoimadazolidin-4-one Derivatives as Potent\nAnti-cancer Agents Through Apoptosis Induction and Antioxi-dant Activation: In vitro and In vivo Approaches\nMohamed S. Nafie 1,*, Ahmed I. Khodair 2,*, Hebat Allah Y. Hassan 3, Noha M. Abd El-Fadeal 4, Hanin A. Bogari 5 , Sameh S. Elhady 6 and Safwat A. Ahmed 3,7,* […]\nApoptosis and necrosis cell populations are determined using Annexin V-FITC apop-tosis detection kit (Abcam Inc., Cambridge Science Park, Cambridge, UK) coupled with 2 fluorescent channels flowcytometry. […]\nThen, cells are incubated in dark with 0.5 ml of Annexin V-FITC/PI solution for 30 min in dark at room temperature according to manufacturer protocol. After staining, cells are injected via ACEA Novocyte™ flowcytometer (ACEA Biosciences Inc., San Diego, CA, USA) and analyzed for FITC and PI fluorescent signals using FL1 and FL2 signal detector, respectively (λex/em 488/530 nm for FITC and λex/em 535/617 nm for PI). […]",
  "data": [
    {"compound": "O=C1NC(=S)N(c2ccc(O)cc2)/C1=C/c1cccs1", "note": "[Compound 4, (E)-1-(4-Hydroxyphenyl)-5-(thiophen-2-ylmethylene)-2-thioxoimidazolidin-4-one]", "values": [
      {"measurement": "% cells in G2/M phase", "result": 21.15, "unit": "%"}
    ]}
  ]
}
